Patent publication US9309276B2, “Synthetic lipid A derivative” (University of Georgia Research Foundation, Inc., priority 2007, dated 2016)
Read-outs that look alike come from different tables or passages of the source.

Legend:
MM6 cells [1] = assay: Antagonism of E. coli LPS-induced TNF-α production in human monocytic MM6 cells; assay type: cell-based; conditions: 5.5 h, read-out: IC50 (concentration producing 50% inhibition) of TNF production induced by E. coli LPS
Description: TNF-α concentrations were measured after preincubation of MM6 cells with increasing concentrations of 103 or 104 as indicated for 1 h at 37° C., followed by 5.5 h of incubation with E. coli LPS (1 ng mL^−1). Results are expressed as percentage of cytokine concentration of control cells, which are incubated only with E. coli LPS.
Compounds that lack proinflammatory properties may still interact with relevant receptors (TLR4/MD2/CD14), and thereby inhibit TNF-α production induced by E. coli LPS. […]
(§1) On the day of the exposure assay differentiated MM6 cells were harvested by centrifugation and suspended (10^6 cells mL^−1) in tissue culture tubes and RAW 264.7 γNO(−) cells were plated as 2×10^5 cells/well in 96-well tissue culture plates (Nunc). […] Concentrations of human TNF-α protein in culture supernatants were determined by a solid phase sandwich ELISA. […] After the reaction was stopped by adding peroxidase stop solution (Kirkegaard & Perry Laboratories), the absorbance was measured at 405 nm using a microplate reader (BMG Labtech). Cytokine DuoSet ELISA Development Kits (R&D Systems) were used for the cytokine quantification of mouse TNF-α, mouse IL-6, mouse IP-10 and mouse IL-1β according to the manufacturer's instructions. The absorbance was measured at 450 nm with wavelength correction set to 540 nm. Concentrations of mouse IFN-β in culture supernatants were determined as follows. […]

MM6 cells [2] = assay: Cell viability of MM6 cells by trypan blue exclusion; assay type: cell-based, human; conditions: 5.5 h treatment
human TLR4/MD2/CD14 = molecular target: T1, human TLR4/MD2/CD14 (Homo sapiens, UniProt O00206+Q9Y6Y9); assay: NF-κB activation in HEK 293T cells stably transfected with human TLR4/MD2/CD14; assay type: cell-based; conditions: 103/104 at 0.1, 1 and 10 μg mL−1; E. coli LPS 10 ng mL−1; 4 h
T1 construct: host or cells: HEK 293T
Description: Induction of NF-κB activation was determined in triplicate cultures of HEK 293T cells stably transfected with human or mouse (a) TLR4/MD2/CD14 and (b) TLR2 and transiently transfected with pELAM-Luc and pRL-TK plasmids. Forty-four h post-transfection, cells were treated with (B) E. coli LPS (10 ng mL^−1), (C) Pam3CysSK4 (1 μg mL^−1), (D, E and F) 103 (0.1, 1 and 10 μg mL^−1, respectively), (G, H and I) 104 (0.1, 1 and 10 μg mL^−1, respectively) or (A) were left untreated (control). Forty-eight h post-transfection, NF-κB activation was determined by firefly luciferase activity relative to Renilla luciferase activity. n.a. indicates not analyzed. […]
The day before transfection, HEK 293T wild type cells and HEK 293T cells stably transfected with human and murine TLR4/MD2/CD14 and human and murine TLR2 were plated in 96-well tissue culture plates (16,000 cells/well). […] The luciferase activity was measured using the Dual-Luciferase Reporter Assay System (Promega) according to the manufacturer's instructions and a combination luminometer/fluorometer microplate reader (BMG Labtech). […]

RAW cells = assay: Antagonism of E. coli LPS-induced TNF-α production in mouse macrophages (RAW cells); assay type: cell-based; conditions: mouse cell line, E. coli LPS (10 ng/mL), 5.5 h
Description: Compounds that lack proinflammatory properties may still interact with relevant receptors (TLR4/MD2/CD14), and thereby inhibit TNF-α production induced by E. coli LPS. Thus, the human monocytic cells and mouse macrophages (MM6 and RAW cells) were exposed to a combination of E. coli LPS (10 ng/mL) and a wide range of concentrations of lipid As 103 and 104 and, after an incubation time of 5.5 h, the supernatant was examined for human or mouse TNF-a.
as §1

T1 sequence (O00206 24-839): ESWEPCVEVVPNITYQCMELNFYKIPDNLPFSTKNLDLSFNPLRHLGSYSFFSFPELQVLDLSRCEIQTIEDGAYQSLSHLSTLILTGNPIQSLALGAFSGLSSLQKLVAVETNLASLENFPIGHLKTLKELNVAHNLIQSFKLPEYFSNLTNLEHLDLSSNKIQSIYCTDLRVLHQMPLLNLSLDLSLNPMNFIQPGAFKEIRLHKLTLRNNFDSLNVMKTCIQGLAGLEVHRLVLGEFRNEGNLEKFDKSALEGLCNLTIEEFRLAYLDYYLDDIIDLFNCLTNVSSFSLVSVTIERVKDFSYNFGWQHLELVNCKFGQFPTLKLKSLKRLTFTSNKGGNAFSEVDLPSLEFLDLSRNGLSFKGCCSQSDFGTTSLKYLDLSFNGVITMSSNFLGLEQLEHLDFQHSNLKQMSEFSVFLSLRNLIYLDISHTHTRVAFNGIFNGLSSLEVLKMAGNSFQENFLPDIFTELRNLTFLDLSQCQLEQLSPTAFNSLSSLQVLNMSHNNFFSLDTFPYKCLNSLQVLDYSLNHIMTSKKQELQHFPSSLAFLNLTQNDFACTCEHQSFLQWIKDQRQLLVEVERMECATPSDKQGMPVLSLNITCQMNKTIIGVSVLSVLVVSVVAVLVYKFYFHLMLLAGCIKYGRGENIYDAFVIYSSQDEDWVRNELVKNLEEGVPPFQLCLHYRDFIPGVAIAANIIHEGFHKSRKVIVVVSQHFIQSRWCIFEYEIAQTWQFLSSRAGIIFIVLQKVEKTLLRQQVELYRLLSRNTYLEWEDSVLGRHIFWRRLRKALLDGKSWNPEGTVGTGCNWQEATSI
T1 sequence (Q9Y6Y9 19-160): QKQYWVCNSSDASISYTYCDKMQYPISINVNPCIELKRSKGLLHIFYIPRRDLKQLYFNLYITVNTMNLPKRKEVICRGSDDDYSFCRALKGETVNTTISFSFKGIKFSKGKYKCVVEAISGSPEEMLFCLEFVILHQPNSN

Compound: CCCCCCCCCCCCCCCC(=O)O[C@H](CCCCCCCCCCCC(C)C)CC(=O)N[C@H]1[C@H](OC[C@H]2O[C@H](OP(=O)(O)O)[C@H](NC(=O)C[C@H](O)CCCCCCCCCCCC(C)C)[C@@H](OC(=O)C[C@H](O)CCCCCCCCCCCCC)[C@@H]2O)O[C@H](CO)[C@@H](O)[C@@H]1O [Compound 103, 6-O-{2-Deoxy-2-[(R)-3-hexadecanoyloxy-15-methyl-hexadecanoylamino]-β-D-glucopyranosyl}-3-O—[(R)-3-hydroxy-hexadecanoyl]-2-deoxy-2-[(R)-3-hydroxy-15-methyl-hexadecanoylamino]-α-D-glucopyranose 1-phosphate]
- IC50 (MM6 cells [1]; human MM6 cells, E. coli LPS (10 ng/mL)): 160 nM
- cell viability, cellular exclusion of trypan blue (MM6 cells [2]): did not affect cell viability
- NF-κB activation, human TLR4/MD2/CD14 (human TLR4/MD2/CD14): No activation of NF-κB
- inhibition of TNF-α production induced by E. coli LPS (RAW cells): marginal inhibition

Compound: CCCCCCCCCCCCCCCC(=O)O[C@H](CCCCCCCCCCCC(C)C)CC(=O)N[C@H]1[C@H](OC[C@H]2O[C@H](OP(=O)(O)O)[C@H](NC(=O)C[C@H](O)CCCCCCCCCCCC(C)C)[C@@H](O)[C@@H]2O)O[C@H](CO)[C@@H](O)[C@@H]1ONC(=O)C[C@H](O)CCCCCCCCCC(C)C [Compound 104, 6-O-{2-Deoxy-2-[(R)-3-hexadecanoyloxy-15-methyl-hexadecanoylamino]-3-O—[(R)-3-hydroxy-13-methyl-tetradecanoylamino]-β-D-glucopyranosyl}-2-deoxy-2-[(R)-3-hydroxy-15-methyl-hexadecanoylamino]-α-D-glucopyranose 1-phosphate]
- IC50 (MM6 cells [1]; Homo sapiens): 3200 nM
- cell viability, cellular exclusion of trypan blue (MM6 cells [2]): did not affect cell viability
- NF-κB activation, human TLR4/MD2/CD14 (human TLR4/MD2/CD14): No activation of NF-κB
- inhibition of TNF-α production induced by E. coli LPS (RAW cells): marginal inhibition
